In patent publication US20250017914A1, “6-AZA-QUINOLINE DERIVATIVES AND RELATED USES” (Black Diamond Therapeutics, Inc., priority 2021, published 2025):

Biological target: T1, BaF3 BRAF-KIAA1549 fusion cells (Homo sapiens, UniProt P15056)
T1 construct: The BRAF-KIAA1549 fusion mutant was subcloned into pMXs-IRES-Blasticidin (RTV-016, Cell Biolabs, San Diego, CA); No tag given; Q9HCM3 (UPF0606 protein KIAA1549)
Test: BaF3 BRAF-KIAA1549 fusion cell proliferation assay (CellTiterGlo, 96 hours)
Format: cell-based
Details: Table A2
Procedure, shortened: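 BaF3 cells retrovirally transduced with BRAF-KIAA1549 fusion and blasticidin-selected were plated at 7×10^4 c/well in RPMI, 10% heat-inactivated FBS, 1% L-glutamine, and exposed to compound for 96 hours. Growth was read as ATP content by CellTiterGlo luminescence. IC50 was fitted by Levenberg-Marquardt, normalised to DMSO-treated cells.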

T1 sequence (P15056 whole entry, change not shown, the tested form may be a part): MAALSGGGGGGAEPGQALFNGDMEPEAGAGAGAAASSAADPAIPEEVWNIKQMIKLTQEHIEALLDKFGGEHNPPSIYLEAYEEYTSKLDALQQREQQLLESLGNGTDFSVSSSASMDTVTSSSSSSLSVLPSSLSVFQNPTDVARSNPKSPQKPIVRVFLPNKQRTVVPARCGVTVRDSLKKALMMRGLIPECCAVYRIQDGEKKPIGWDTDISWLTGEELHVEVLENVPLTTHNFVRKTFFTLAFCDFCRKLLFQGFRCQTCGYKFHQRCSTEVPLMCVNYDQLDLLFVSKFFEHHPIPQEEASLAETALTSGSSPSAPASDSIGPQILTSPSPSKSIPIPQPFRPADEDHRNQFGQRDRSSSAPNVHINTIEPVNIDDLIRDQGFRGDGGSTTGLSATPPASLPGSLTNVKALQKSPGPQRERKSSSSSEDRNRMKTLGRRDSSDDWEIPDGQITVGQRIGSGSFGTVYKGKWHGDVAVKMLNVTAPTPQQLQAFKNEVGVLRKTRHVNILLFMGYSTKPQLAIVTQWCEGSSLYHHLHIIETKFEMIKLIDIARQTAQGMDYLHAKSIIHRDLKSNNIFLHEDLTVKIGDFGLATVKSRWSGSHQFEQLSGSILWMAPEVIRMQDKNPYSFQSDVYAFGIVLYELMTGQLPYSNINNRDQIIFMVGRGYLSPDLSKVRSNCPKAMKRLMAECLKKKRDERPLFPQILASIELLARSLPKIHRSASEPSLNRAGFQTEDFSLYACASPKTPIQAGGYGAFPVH

Compound | GI50
CNc1cc2ncc(-c3cc(NC(=O)c4nccc5c4OCCC5O)cnc3C)cc2cn1 (centres unmarked) [Compound 211, 4-hydroxy-N-(6-methyl-5-(7-(methylamino)-1,6-naphthyridin-3-yl)pyridin-3-yl)-3,4-dihydro-2H-pyrano[2,3-c]pyridine-8-carboxamide] | ≥ 500 nM
CNc1cc2ncc(-c3cc(NC(=O)c4cccc5c4CCC5=O)cnc3C)cc2cn1 [Compound 212, N-(6-methyl-5-(7-(methylamino)-1,6-naphthyridin-3-yl)pyridin-3-yl)-1-oxo-2,3-dihydro-1H-indene-4-carboxamide] | ≥ 500 nM
CNc1cc2ncc(-c3cc(C(=O)Nc4cc(C(C)(C)C#N)ccn4)cnn3)cc2cn1 [Compound 213, N-(4-(2-cyanopropan-2-yl)pyridin-2-yl)-6-(7-(methylamino)-1,6-naphthyridin-3-yl)pyridazine-4-carboxamide] | ≥ 500 nM
CNc1cc2ncc(-c3cc(NC(=O)c4cnc5n4CCCC5C)ccc3C)cc2cn1 (centres unmarked) [Compound 214, 8-methyl-N-(4-methyl-3-(7-(methylamino)-1,6-naphthyridin-3-yl)phenyl)-5,6,7,8-tetrahydroimidazo[1,2-a]pyridine-3-carboxamide] | 20 to 100 nM
CNc1cc2ncc(-c3cc(NC(=O)c4cccc5c4NC(=O)C5(C)C)ccc3C)cc2cn1 [Compound 215, 3,3-dimethyl-N-(4-methyl-3-(7-(methylamino)-1,6-naphthyridin-3-yl)phenyl)-2-oxoindoline-7-carboxamide] | 20 to 100 nM
CNc1cc2ncc(-c3cc(NC(=O)c4cnc5n4CCCC5)ccc3C)cc2cn1 [Compound 216, N-(4-methyl-3-(7-(methylamino)-1,6-naphthyridin-3-yl)phenyl)-5,6,7,8-tetrahydroimidazo[1,2-a]pyridine-3-carboxamide] | 100 to 500 nM
CNc1cc2ncc(-c3cc(NC(=O)c4ccnc(C(C)(C)C#N)c4)c(F)cc3C)cc2cn1 [Compound 217, 2-(2-cyanopropan-2-yl)-N-(2-fluoro-4-methyl-5-(7-(methylamino)-1,6-naphthyridin-3-yl)phenyl)isonicotinamide] | 20 to 100 nM
CNc1cc2ncc(-c3cc(NC(=O)c4cc(C(N(C)C)C(F)(F)F)ccn4)ccc3C)cc2cn1 (centres unmarked) [Compound 218, 4-(1-(dimethylamino)-2,2,2-trifluoroethyl)-N-(4-methyl-3-(7-(methylamino)-1,6-naphthyridin-3-yl)phenyl)picolinamide] | 20 to 100 nM
CNc1cc2ncc(-c3cc(NC(=O)c4cccc5c4CCC5O)cnc3C)cc2cn1 (centres unmarked) [Compound 219, 1-hydroxy-N-(6-methyl-5-(7-(methylamino)-1,6-naphthyridin-3-yl)pyridin-3-yl)-2,3-dihydro-1H-indene-4-carboxamide] | ≥ 500 nM
CNc1cc2ncc(-c3cc(NC(=O)c4cnc5n4CC(C(F)(F)F)CC5)ccc3C)cc2cn1 (centres unmarked) [Compound 220, N-(4-methyl-3-(7-(methylamino)-1,6-naphthyridin-3-yl)phenyl)-6-(trifluoromethyl)-5,6,7,8-tetrahydroimidazo[1,2-a]pyridine-3-carboxamide] | 20 to 100 nM
CNc1cc2ncc(-c3cc(NC(=O)c4ccnc(C5(F)CC5)c4)c(F)cc3C)cc2cn1 [Compound 221, N-(2-fluoro-4-methyl-5-(7-(methylamino)-1,6-naphthyridin-3-yl)phenyl)-2-(1-fluorocyclopropyl)isonicotinamide] | 20 to 100 nM
CNc1cc2ncc(-c3cc(NC(=O)c4ccnc(C(C)(C)F)c4)c(F)cc3C)cc2cn1 [Compound 222, N-(2-fluoro-4-methyl-5-(7-(methylamino)-1,6-naphthyridin-3-yl)phenyl)-2-(2-fluoropropan-2-yl)isonicotinamide] | 20 to 100 nM
CNc1cc2ncc(-c3cc(NC(=O)c4cccc(C(C)(C)C#N)c4)c(F)cc3C)cc2cn1 [Compound 223, 3-(2-cyanopropan-2-yl)-N-(2-fluoro-4-methyl-5-(7-(methylamino)-1,6-naphthyridin-3-yl)phenyl)benzamide] | 20 to 100 nM
CNc1cc2ncc(-c3cc(NC(=O)c4cc(C(F)(F)F)ccn4)c(F)cc3C)cc2cn1 [Compound 224, N-(2-fluoro-4-methyl-5-(7-(methylamino)-1,6-naphthyridin-3-yl)phenyl)-4-(trifluoromethyl)picolinamide] | 100 to 500 nM
CNc1cc2ncc(-c3cc(NC(=O)c4cnc5n4CC(C)CC5)cnc3C)cc2cn1 (centres unmarked) [Compound 225, 6-methyl-N-(6-methyl-5-(7-(methylamino)-1,6-naphthyridin-3-yl)pyridin-3-yl)-5,6,7,8-tetrahydroimidazo[1,2-a]pyridine-3-carboxamide] | 20 to 100 nM
CNc1cc2ncc(-c3cc(NC(=O)c4ccccc4NC(C)C(F)F)cnc3C)cc2cn1 (centres unmarked) [Compound 226, 2-((1,1-difluoropropan-2-yl)amino)-N-(6-methyl-5-(7-(methylamino)-1,6-naphthyridin-3-yl)pyridin-3-yl)benzamide] | 20 to 100 nM

Compound | GI50
CCC(C)c1ccnc(C(=O)Nc2cnc(C)c(-c3cnc4cc(NC)ncc4c3)c2)c1 (centres unmarked) [Compound 227, 4-(sec-butyl)-N-(6-methyl-5-(7-(methylamino)-1,6-naphthyridin-3-yl)pyridin-3-yl)picolinamide] | 20 to 100 nM
CNc1cc2ncc(-c3cc(NC(=O)c4noc5c4CCCC5)ccc3C)cc2cn1 [Compound 228, N-(4-methyl-3-(7-(methylamino)-1,6-naphthyridin-3-yl)phenyl)-4,5,6,7-tetrahydrobenzo[d]isoxazole-3-carboxamide] | 100 to 500 nM
CNc1cc2ncc(-c3cc(NC(=O)c4n[nH]c5c4CCCC5)cnc3C)cc2cn1 [Compound 229, N-(6-methyl-5-(7-(methylamino)-1,6-naphthyridin-3-yl)pyridin-3-yl)-4,5,6,7-tetrahydro-1H-indazole-3-carboxamide] | 20 to 100 nM
CNc1cc2ncc(-c3cc(NC(=O)c4cnc5n4CCCCC5)cnc3C)cc2cn1 [Compound 232, N-(6-methyl-5-(7-(methylamino)-1,6-naphthyridin-3-yl)pyridin-3-yl)-6,7,8,9-tetrahydro-5H-imidazo[1,2-a]azepine-3-carboxamide] | 100 to 500 nM
CNc1cc2ncc(-c3cc(NC(=O)c4nn(C)c5c4CCCC5)cnc3C)cc2cn1 [Compound 233, 1-methyl-N-(6-methyl-5-(7-(methylamino)-1,6-naphthyridin-3-yl)pyridin-3-yl)-4,5,6,7-tetrahydro-1H-indazole-3-carboxamide] | 20 to 100 nM
CNc1cc2ncc(-c3cc(NC(=O)c4csc5c4CCCC5)cnc3C)cc2cn1 [Compound 234, N-(6-methyl-5-(7-(methylamino)-1,6-naphthyridin-3-yl)pyridin-3-yl)-4,5,6,7-tetrahydrobenzo[b]thiophene-3-carboxamide] | 20 to 100 nM
CNc1cc2ncc(-c3cc(NC(=O)c4csc5c4CCC(C)C5)cnc3C)cc2cn1 (centres unmarked) [Compound 235, 6-methyl-N-(6-methyl-5-(7-(methylamino)-1,6-naphthyridin-3-yl)pyridin-3-yl)-4,5,6,7-tetrahydrobenzo[b]thiophene-3-carboxamide] | 20 to 100 nM
CNc1cc2ncc(-c3cc(NC(=O)c4cnc5n4CC(C(F)F)CC5)ccc3C)cc2cn1 (centres unmarked) [Compound 238, 6-(difluoromethyl)-N-(4-methyl-3-(7-(methylamino)-1,6-naphthyridin-3-yl)phenyl)-5,6,7,8-tetrahydroimidazo[1,2-a]pyridine-3-carboxamide] | 20 to 100 nM
CNc1cc2ncc(-c3cc(NC(=O)c4cccc5c4OC(C)C5)cnc3C)cc2cn1 (centres unmarked) [Compound 239, 2-methyl-N-(6-methyl-5-(7-(methylamino)-1,6-naphthyridin-3-yl)pyridin-3-yl)-2,3-dihydrobenzofuran-7-carboxamide] | ≥ 500 nM
CNc1cc2ncc(-c3cc(NC(=O)c4cnn(CC(F)(F)F)c4C)cnc3C)cc2cn1 [Compound 240, 5-methyl-N-(6-methyl-5-(7-(methylamino)-1,6-naphthyridin-3-yl)pyridin-3-yl)-1-(2,2,2-trifluoroethyl)-1H-pyrazole-4-carboxamide] | ≥ 500 nM
CNc1cc2ncc(-c3cc(NC(=O)c4noc5c4CC(C(C)(C)C)CC5)cnc3C)cc2cn1 (centres unmarked) [Compound 241, 5-(tert-butyl)-N-(6-methyl-5-(7-(methylamino)-1,6-naphthyridin-3-yl)pyridin-3-yl)-4,5,6,7-tetrahydrobenzo[d]isoxazole-3-carboxamide] | 100 to 500 nM
CNc1cc2ncc(-c3cc(NC(=O)c4cc(C(O)CC(F)(F)F)ccn4)cnc3C)cc2cn1 (centres unmarked) [Compound 242, N-(6-methyl-5-(7-(methylamino)-1,6-naphthyridin-3-yl)pyridin-3-yl)-4-(3,3,3-trifluoro-1-hydroxypropyl)picolinamide] | 20 to 100 nM
CNc1cc2ncc(-c3cc(NC(=O)c4cnc5n4CC(C(F)(F)F)CC5)cnc3C)cc2cn1 (centres unmarked) [Compound 243] | 20 to 100 nM
CNc1cc2ncc(-c3cc(NC(=O)c4n[nH]c5c4CN(C)CC5)cnc3C)cc2cn1 [Compound 244, 5-methyl-N-(6-methyl-5-(7-(methylamino)-1,6-naphthyridin-3-yl)pyridin-3-yl)-4,5,6,7-tetrahydro-1H-pyrazolo[4,3-c]pyridine-3-carboxamide] | ≥ 500 nM
CNc1cc2ncc(-c3cc(NC(=O)c4noc5c4CCCCC5)cnc3C)cc2cn1 [Compound 245, N-(6-methyl-5-(7-(methylamino)-1,6-naphthyridin-3-yl)pyridin-3-yl)-5,6,7,8-tetrahydro-4H-cyclohepta[d]isoxazole-3-carboxamide] | 20 to 100 nM
CNc1cc2ncc(-c3cc(NC(=O)c4noc5c4COCC5)cnc3C)cc2cn1 [Compound 246, N-(6-methyl-5-(7-(methylamino)-1,6-naphthyridin-3-yl)pyridin-3-yl)-6,7-dihydro-4H-pyrano[3,4-d]isoxazole-3-carboxamide] | ≥ 500 nM
